Assay results: ChEMBL document CHEMBL3886982, “Substituted bicyclic dihydropyrimidinones and their use as inhibitors of neutrophil elastase activity” (2016)

Target: T1, Neutrophil elastase (Homo sapiens, UniProt P08246)
T1 sequence (P08246 whole entry): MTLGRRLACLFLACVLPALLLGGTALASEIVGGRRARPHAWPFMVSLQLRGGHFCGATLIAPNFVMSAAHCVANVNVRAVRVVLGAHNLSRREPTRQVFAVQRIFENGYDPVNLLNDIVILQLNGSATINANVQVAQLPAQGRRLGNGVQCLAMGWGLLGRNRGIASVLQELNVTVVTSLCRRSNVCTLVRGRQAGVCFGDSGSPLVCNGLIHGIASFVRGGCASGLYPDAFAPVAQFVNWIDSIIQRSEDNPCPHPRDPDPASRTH
Experiment: Human Neutrophil Elastase Assay: The following buffers were used: Compound buffer: 100 mM Tris, 500 mM NaCl, adjusted to pH 7.5; Assay buffer: 100 mM Tris, 500 mM NaCl, adjusted to pH 7.5, containing 0.01% BSA.Assay conditions: Test compounds were prediluted in DMSO and subsequently in compound buffer (5% DMSO final). 5 μL of these compound dilutions were mixed with 10 μl Neutrophil elastase …
Description: Human Neutrophil Elastase Assay: The following buffers were used: Compound buffer: 100 mM Tris, 500 mM NaCl, adjusted to pH 7.5; Assay buffer: 100 mM Tris, 500 mM NaCl, adjusted to pH 7.5, containing 0.01% BSA.Assay conditions: Test compounds were prediluted in DMSO and subsequently in compound buffer (5% DMSO final). […] After inactivation of the enzyme, fluorescence intensities were measured at 380 nm excitation and 460 nm emission wavelengths.

SMILES: CN1C(=O)N(c2cccc(C(F)(F)F)c2)C2=C(C(=O)CC2)C1c1ccc(C#N)cc1-c1ccnn1C (stereo unspecified)
- IC50: 7.3 nM
